Assay results reported in PubChem BioAssay AID2060910 (Molecular Pharmacology Branch, DTP, NCI, 2025).

System: 242566-281-R-J2-PDC complex spheroid viability
Assay: Anticancer human tumor 242566-281-R-J2-PDC patient-derived pancreatic carcinoma cell line growth inhibition [RAS]
Conditions: for viability, T/C: stronger effect = lower value
Procedure, shortened: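 Multi-cell-type spheroids: tumor cells plus HUVEC endothelial cells and mesenchymal stem cells. RAS-pathway inhibitors were combined with targeted agents, each dosed in half-log steps down from clinical Cmax, or from 10 microM when Cmax was unknown.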

[1] = curve of first compound, second compound 0.000949 µM
[2] = curve of first compound, second compound 0.003 µM
[3] = curve of first compound, second compound 0.00949 µM
[4] = curve of first compound, second compound 0.03 µM
[5] = curve of first compound, second compound 0.0949 µM
[6] = curve of first compound, second compound 0.3 µM
[7] = second compound 0.000949 µM, first compound 0.0316 µM
[8] = second compound 0.000949 µM, first compound 0.1 µM
[9] = second compound 0.000949 µM, first compound 0.316 µM
[10] = second compound 0.000949 µM, first compound 1 µM
[11] = second compound 0.000949 µM, first compound 3.16 µM
[12] = second compound 0.000949 µM, first compound 10 µM
[13] = second compound 0.003 µM, first compound 0.0316 µM
[14] = second compound 0.003 µM, first compound 0.1 µM
[15] = second compound 0.003 µM, first compound 0.316 µM
[16] = second compound 0.003 µM, first compound 1 µM
[17] = second compound 0.003 µM, first compound 3.16 µM
[18] = second compound 0.003 µM, first compound 10 µM
[19] = second compound 0.00949 µM, first compound 0.0316 µM
[20] = second compound 0.00949 µM, first compound 0.1 µM
[21] = second compound 0.00949 µM, first compound 0.316 µM
[22] = second compound 0.00949 µM, first compound 1 µM
[23] = second compound 0.00949 µM, first compound 3.16 µM
[24] = second compound 0.00949 µM, first compound 10 µM
[25] = second compound 0.03 µM, first compound 0.0316 µM
[26] = second compound 0.03 µM, first compound 0.1 µM
[27] = second compound 0.03 µM, first compound 0.316 µM
[28] = second compound 0.03 µM, first compound 1 µM
[29] = second compound 0.03 µM, first compound 3.16 µM
[30] = second compound 0.03 µM, first compound 10 µM
[31] = second compound 0.0949 µM, first compound 0.0316 µM
[32] = second compound 0.0949 µM, first compound 0.1 µM
[33] = second compound 0.0949 µM, first compound 0.316 µM
[34] = second compound 0.0949 µM, first compound 1 µM
[35] = second compound 0.0949 µM, first compound 3.16 µM
[36] = second compound 0.0949 µM, first compound 10 µM
[37] = second compound 0.3 µM, first compound 0.0316 µM
[38] = second compound 0.3 µM, first compound 0.1 µM
[39] = second compound 0.3 µM, first compound 0.316 µM
[40] = second compound 0.3 µM, first compound 1 µM
[41] = second compound 0.3 µM, first compound 3.16 µM
[42] = second compound 0.3 µM, first compound 10 µM
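Note: spheroids exposed to compound for 7 days before readout.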
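Throughout, for viability, T/C: 100% = DMSO vehicle control wells.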

NC1c2ccccc2OC12CCN(c1cnc3c(N4CCCc5ncccc54)n[nH]c3n1)CC2 (stereo not given) + CCn1c(-c2cc(N3CCN(C)CC3)cnc2C(C)OC)c2c3cc(ccc31)-c1csc(n1)CC(NC(=O)C1CC1C)C(=O)N1CCCC(N1)C(=O)OCC(C)(C)C2
IC50 [1]: 0.0508 µM | IC50 [2]: < 0.0316 µM | IC50 [3]: < 0.0316 µM | IC50 [4]: < 0.0316 µM | IC50 [5]: < 0.0316 µM | IC50 [6]: < 0.0316 µM | viability, T/C [7]: 58.2% | viability, T/C [8]: 40.6% | viability, T/C [9]: 20.6% | viability, T/C [10]: 24.9% | viability, T/C [11]: 21.2% | viability, T/C [12]: 8.53% | viability, T/C [13]: 42.9% | viability, T/C [14]: 26.4% | viability, T/C [15]: 18.9% | viability, T/C [16]: 21.3% | viability, T/C [17]: 18.4% | viability, T/C [18]: 6.57% | viability, T/C [19]: 31.6% | viability, T/C [20]: 19.2% | viability, T/C [21]: 18.1% | viability, T/C [22]: 15.8% | viability, T/C [23]: 13.4% | viability, T/C [24]: 7.23% | viability, T/C [25]: 23.1% | viability, T/C [26]: 18.1% | viability, T/C [27]: 15.7% | viability, T/C [28]: 15.2% | viability, T/C [29]: 12.8% | viability, T/C [30]: 7.77% | viability, T/C [31]: 20.1% | viability, T/C [32]: 16.8% | viability, T/C [33]: 14.8% | viability, T/C [34]: 13.6% | viability, T/C [35]: 11.8% | viability, T/C [36]: 7.6% | viability, T/C [37]: 15.6% | viability, T/C [38]: 15.4% | viability, T/C [39]: 14.4% | viability, T/C [40]: 10.6% | viability, T/C [41]: 9.17% | viability, T/C [42]: 4.89%

C[C@@H](NC(=O)c1ncnc(N)c1Cl)c1ncc(C(=O)Nc2cc(C(F)(F)F)c(Cl)cn2)s1 + CCn1c(-c2cccnc2C(C)OC)c2c3cc(ccc31)N1CCOC(CC(NC(=O)C(C(C)C)N(C)C(=O)C3(F)CCN(C(=O)C#CC(C)(C)N(C)C)CC3)C(=O)N3CCCC(N3)C(=O)OCC(C)(C)C2)C1
IC50 [1]: > 10 µM | IC50 [2]: > 10 µM | IC50 [3]: > 10 µM | IC50 [4]: > 10 µM | IC50 [5]: > 10 µM | IC50 [6]: > 10 µM | viability, T/C [7]: 126% | viability, T/C [8]: 107% | viability, T/C [9]: 112% | viability, T/C [10]: 103% | viability, T/C [11]: 107% | viability, T/C [12]: 63.8% | viability, T/C [13]: 106% | viability, T/C [14]: 100% | viability, T/C [15]: 106% | viability, T/C [16]: 105% | viability, T/C [17]: 97.3% | viability, T/C [18]: 87.7% | viability, T/C [19]: 113% | viability, T/C [20]: 104% | viability, T/C [21]: 95.1% | viability, T/C [22]: 115% | viability, T/C [23]: 91.8% | viability, T/C [24]: 83.1% | viability, T/C [25]: 105% | viability, T/C [26]: 90.8% | viability, T/C [27]: 109% | viability, T/C [28]: 90.6% | viability, T/C [29]: 77.3% | viability, T/C [30]: 101% | viability, T/C [31]: 94.9% | viability, T/C [32]: 105% | viability, T/C [33]: 90.7% | viability, T/C [34]: 105% | viability, T/C [35]: 69.8% | viability, T/C [36]: 98.1% | viability, T/C [37]: 90.8% | viability, T/C [38]: 84.5% | viability, T/C [39]: 108% | viability, T/C [40]: 88.1% | viability, T/C [41]: 85.5% | viability, T/C [42]: 86.7%

CCC(CC)c1cc(NC2CCC(N)C2)n2nccc2n1 (stereo not given)
viability, T/C (compound 0.0316 µM): 105% [middle of 4 runs] | viability, T/C (compound 0.1 µM): 119% [middle of 4 runs] | viability, T/C (compound 0.316 µM): 105% [middle of 4 runs] | viability, T/C (compound 1 µM): 114% [middle of 4 runs] | viability, T/C (compound 10 µM): 2.75% [middle of 4 runs] | IC50 (curve of compound): 4.51 µM [middle of 4 runs]
